Laboratory results reported in paper PMC8286840, “Identifying SARS-CoV-2 antiviral compounds by screening for small molecule inhibitors of Nsp3 papain-like protease” (Biochemical Journal, 2021).
Counter-ions that a name gives are not always drawn. Like-named read-outs stand apart in the source and are kept apart here.

Columns and labels:
[1] = molecular target: T1, SARS-CoV-2 PLpro (nsp3 1564–1878) (Severe acute respiratory syndrome coronavirus 2, UniProt P0DTD1); assay: biochemical; design: FRET-quenched peptide (Pro3) cleavage by PLpro, 10 min pre-incubation, slope over 20 min, normalised to no-compound control; details: read-out: % of control remaining
[2] = molecular target: T1, SARS-CoV-2 PLpro (nsp3 1564–1878); assay: biochemical; design: FRET-quenched peptide (Pro3) cleavage by PLpro, 10 min pre-incubation, slope over 20 min, normalised to no-compound control; details: read-out: % of control remaining; remark: listed apart in the source

Structure (SMILES): Cc1nnc(NS(=O)(=O)c2ccc(N)cc2)s1 [Sulfamethizole]
- remaining activity at 1.25 µM ([1]; Well no.=7444, low concentration screen): 94.6%
- remaining activity at 1.25 µM ([1]; Well no.=8179, low concentration screen): 108%
- remaining activity at 3.75 µM ([2]; Well no.=7444, high concentration screen): 92.4%
- remaining activity at 3.75 µM ([2]; Well no.=8179, high concentration screen): 106%

Structure (SMILES): C[C@]12CC[C@H](O)CC1=CC[C@@H]1[C@@H]2CC[C@]2(C)C(n3cnc4ccccc43)=CC[C@@H]12 [Galeterone (TOK-001)]
- remaining activity at 1.25 µM ([1]; Well no.=5127, low concentration screen): 97.5%
- remaining activity at 3.75 µM ([2]; Well no.=5127, high concentration screen): 99.7%

Structure (SMILES): CC1=Nc2ccc(Cl)cc2S(=O)(=O)N1 [Diazoxide]
- remaining activity at 1.25 µM ([1]; Well no.=394, low concentration screen): 105%
- remaining activity at 1.25 µM ([1]; Well no.=1804, low concentration screen): 92.9%
- remaining activity at 3.75 µM ([2]; Well no.=394, high concentration screen): 101%
- remaining activity at 3.75 µM ([2]; Well no.=1804, high concentration screen): 93.4%

Structure (SMILES): CCCN(CCC)C(=O)C(CCC(=O)O)NC(=O)c1ccccc1 (centres unmarked) [Proglumide]
- remaining activity at 1.25 µM ([1]; Well no.=941, low concentration screen): 104%
- remaining activity at 3.75 µM ([2]; Well no.=941, high concentration screen): 100%

Structure (SMILES): C[N+](C)(C)CCOP(=O)([O-])OC[C@H](O)CO [sn-Glycero-3-phosphocholine]
- remaining activity at 1.25 µM ([1]; Well no.=7303, low concentration screen): 106%
- remaining activity at 3.75 µM ([2]; Well no.=7303, high concentration screen): 106%

Structure (SMILES): CS(=O)(=O)Nc1ccc(-c2coc3cc(OCc4cccc(C(=O)O)c4)ccc3c2=O)cc1 [CVT-10216]
- remaining activity at 1.25 µM ([1]; Well no.=5513, low concentration screen): 105%
- remaining activity at 3.75 µM ([2]; Well no.=5513, high concentration screen): 108%

Structure (SMILES): Nc1ccn([C@@H]2O[C@H](CO)[C@@H](O)[C@@H]2O)c(=O)n1 [Cytosine-1-beta-D-arabinofuranoside hydrochloride]
- remaining activity at 1.25 µM ([1]; Well no.=374, low concentration screen): 94.2%
- remaining activity at 3.75 µM ([2]; Well no.=374, high concentration screen): 89.3%

Structure (SMILES): CC(CN1c2ccccc2Sc2ccccc21)N(C)C (centres unmarked)
- remaining activity at 1.25 µM ([1]; Well no.=3844, low concentration screen): 101%
- remaining activity at 3.75 µM ([2]; Well no.=3844, high concentration screen): 97.9%

Structure (SMILES): COc1cc(-c2oc3cc(O)cc(O)c3c(=O)c2O)ccc1O [Isorhamnetine]
- remaining activity at 1.25 µM ([1]; Well no.=3150, low concentration screen): 99.4%
- remaining activity at 3.75 µM ([2]; Well no.=3150, high concentration screen): 99.7%

Structure (SMILES): CC1(C)CC=C(c2cnc3ccccc3c2)c2cc(C(=O)Nc3ccc(C(=O)O)cc3)ccc21 [BMS-195614]
- remaining activity at 1.25 µM ([1]; Well no.=5458, low concentration screen): 98.2%
- remaining activity at 3.75 µM ([2]; Well no.=5458, high concentration screen): 103%

Structure (SMILES): Cc1cccc(Nc2ccccc2C(=O)O)c1C [Mefenamic acid]
- remaining activity at 1.25 µM ([1]; Well no.=1951, low concentration screen): 97.7%
- remaining activity at 3.75 µM ([2]; Well no.=1951, high concentration screen): 99.7%

Structure (SMILES): CC(C)c1cc(-c2ccc(F)c3ccccc23)nc(N)n1 [RS-127445]
- remaining activity at 1.25 µM ([1]; Well no.=4683, low concentration screen): 106%
- remaining activity at 3.75 µM ([2]; Well no.=4683, high concentration screen): 102%

Structure (SMILES): O=S(=O)(NCc1ccccn1)c1ccc(Br)c2ccccc12 [Pyrabactin]
- remaining activity at 1.25 µM ([1]; Well no.=5918, low concentration screen): 96.4%
- remaining activity at 3.75 µM ([2]; Well no.=5918, high concentration screen): 95.8%

Structure (SMILES): CCN(CC)CCS(=O)(=O)[C@@H]1CCN2C(=O)c3coc(n3)CC(=O)C[C@H](O)/C=C(C)/C=C/CNC(=O)/C=C/[C@@H](C)[C@@H](C(C)C)OC(=O)[C@@H]12 [Dalfopristin]
- remaining activity at 1.25 µM ([1]; Well no.=7876, low concentration screen): 95%
- remaining activity at 3.75 µM ([2]; Well no.=7876, high concentration screen): 93.8%

Structure (SMILES): CN(C)CCCC1(c2ccc(F)cc2)OCc2cc(C#N)ccc21 (centres unmarked) [Citalopram]
- remaining activity at 1.25 µM ([1]; Well no.=2265, low concentration screen): 97.4%
- remaining activity at 3.75 µM ([2]; Well no.=2265, high concentration screen): 103%

Structure (SMILES): O=C1CSc2ccccc2N1Cc1cccc(C(F)(F)F)c1 [4-[3-(trifluoromethyl)benzyl]-2H-1,4-benzothiazin-3(4H)-one]
- remaining activity at 1.25 µM ([1]; Well no.=5941, low concentration screen): 104%
- remaining activity at 3.75 µM ([2]; Well no.=5941, high concentration screen): 103%

Structure (SMILES): CNS(=O)(=O)CCc1ccc2[nH]cc(C3CCN(C)CC3)c2c1 [Naratriptan (hydrochloride)]
- remaining activity at 1.25 µM ([1]; Well no.=7385, low concentration screen): 100%
- remaining activity at 3.75 µM ([2]; Well no.=7385, high concentration screen): 100%

Structure (SMILES): CCN(CC)CCCC(C)Nc1c2ccc(Cl)cc2nc2ccc(OC)cc12 (centres unmarked) [Quinacrine]
- remaining activity at 1.25 µM ([1]; Well no.=2187, low concentration screen): 96.6%
- remaining activity at 3.75 µM ([2]; Well no.=2187, high concentration screen): 97.2%

Structure (SMILES): C/C=C/c1ccc(OC)cc1 [Anethole, trans-]
- remaining activity at 1.25 µM ([1]; Well no.=1916, low concentration screen): 97.9%
- remaining activity at 3.75 µM ([2]; Well no.=1916, high concentration screen): 95.1%

Structure (SMILES): CO[C@H]1C[C@H](O[C@H]2[C@H](C)[C@@H](O[C@@H]3O[C@H](C)C[C@H](N(C)C)[C@H]3OC(C)=O)[C@@H](C)C[C@@]3(CO3)C(=O)[C@H](C)[C@@H](OC(C)=O)[C@@H](C)[C@@H](C)OC(=O)[C@@H]2C)O[C@@H](C)[C@@H]1OC(C)=O [Troleandomycin]
- remaining activity at 1.25 µM ([1]; Well no.=1570, low concentration screen): 96.7%
- remaining activity at 1.25 µM ([1]; Well no.=3188, low concentration screen): 106%
- remaining activity at 3.75 µM ([2]; Well no.=1570, high concentration screen): 99.5%
- remaining activity at 3.75 µM ([2]; Well no.=3188, high concentration screen): 103%

Structure (SMILES): CS(=O)(=O)Nc1ccc([N+](=O)[O-])cc1Oc1ccccc1 [Nimesulide]
- remaining activity at 1.25 µM ([1]; Well no.=1043, low concentration screen): 93.4%
- remaining activity at 1.25 µM ([1]; Well no.=1574, low concentration screen): 95.5%
- remaining activity at 3.75 µM ([2]; Well no.=1043, high concentration screen): 96.1%
- remaining activity at 3.75 µM ([2]; Well no.=1574, high concentration screen): 94.3%

Structure (SMILES): C=CCc1ccccc1OCC(O)CNC1(C)CCC(C(C)(C)NC(=O)CBr)CC1 (centres unmarked) [Bromoacetyl alprenolol menthane]
- remaining activity at 1.25 µM ([1]; Well no.=275, low concentration screen): 91.4%
- remaining activity at 3.75 µM ([2]; Well no.=275, high concentration screen): 93.3%

Structure (SMILES): CN1C(=O)[C@@H](NC(=O)c2cc(Cc3ccccc3)on2)COc2ccccc21 [GSK'481]
- remaining activity at 1.25 µM ([1]; Well no.=6534, low concentration screen): 104%
- remaining activity at 3.75 µM ([2]; Well no.=6534, high concentration screen): 98.7%

Structure (SMILES): CC(=O)OCC(=O)[C@@]1(O)CC[C@H]2[C@@H]3CCC4=CC(=O)CC[C@]4(C)[C@H]3C(=O)C[C@@]21C [Cortisone 21-acetate]
- remaining activity at 1.25 µM ([1]; Well no.=172, low concentration screen): 92.9%
- remaining activity at 3.75 µM ([2]; Well no.=172, high concentration screen): 92.8%

Structure (SMILES): CCCCCCC(C)(C)c1ccc([C@@H]2C[C@H](O)CC[C@H]2CCCO)c(O)c1 [CP55940]
- remaining activity at 1.25 µM [1]: 104%
- remaining activity at 3.75 µM [2]: 106%

Structure (SMILES): CNc1ncnc2c1ncn2[C@@H]1O[C@H](CO)[C@@H](O)[C@H]1O [N6-Methyladenosine]
- remaining activity at 1.25 µM ([1]; Well no.=930, low concentration screen): 97.7%
- remaining activity at 1.25 µM ([1]; Well no.=8052, low concentration screen): 95.7%
- remaining activity at 3.75 µM ([2]; Well no.=930, high concentration screen): 96.9%
- remaining activity at 3.75 µM ([2]; Well no.=8052, high concentration screen): 96.2%

Structure (SMILES): CC(C)[C@@]1(O)[C@@H](OC(=O)c2ccc[nH]2)[C@@]2(O)[C@@]3(C)C[C@]4(O)O[C@@]5([C@H](O)[C@@H](C)CC[C@]35O)[C@@]2(O)[C@@]14C [Ryanodine]
- remaining activity at 1.25 µM ([1]; Well no.=3583, low concentration screen): 104%
- remaining activity at 3.75 µM ([2]; Well no.=3583, high concentration screen): 105%

Structure (SMILES): CC(C)(Sc1cc(C(C)(C)C)c(O)c(C(C)(C)C)c1)Sc1cc(C(C)(C)C)c(O)c(C(C)(C)C)c1 [Probucol]
- remaining activity at 1.25 µM ([1]; Well no.=4083, low concentration screen): 98.5%
- remaining activity at 3.75 µM ([2]; Well no.=4083, high concentration screen): 105%

Structure (SMILES): C#CCC(Cc1cnc2nc(N)nc(N)c2n1)c1ccc(C(=O)N[C@@H](CCC(=O)O)C(=O)O)cc1 (some centres unmarked) [Pralatrexate]
- remaining activity at 1.25 µM ([1]; Well no.=7550, low concentration screen): 97%
- remaining activity at 1.25 µM ([1]; Well no.=9172, low concentration screen): 83.9%
- remaining activity at 3.75 µM ([2]; Well no.=7550, high concentration screen): 95.8%
- remaining activity at 3.75 µM ([2]; Well no.=9172, high concentration screen): 84.5%

Structure (SMILES): CN(Cc1cnc2nc(N)nc(N)c2n1)c1ccc(C(=O)N[C@@H](CCC(=O)O)C(=O)O)cc1 [Methotrexate]
- remaining activity at 1.25 µM ([1]; Well no.=69, low concentration screen): 94.1%
- remaining activity at 1.25 µM ([1]; Well no.=7352, low concentration screen): 94.4%
- remaining activity at 3.75 µM ([2]; Well no.=69, high concentration screen): 95.5%
- remaining activity at 3.75 µM ([2]; Well no.=7352, high concentration screen): 97.6%
